Results published in patent publication US20190055231A1, “BACE1 INHIBITORS” (Hoffmann-La Roche Inc., priority 2016, published 2019).

What was measured:
[1] = target: T1, BACE2 (Homo sapiens, UniProt Q9Y5Z0); assay: BACE2 cell-free assay (BACE2 enzyme assay); assay type: biochemical; details: for BACE2/BACE1 IC50 ratio: BACE2 IC50 divided by BACE1 IC50, cell free assays
T1 sequence (Q9Y5Z0 63-518): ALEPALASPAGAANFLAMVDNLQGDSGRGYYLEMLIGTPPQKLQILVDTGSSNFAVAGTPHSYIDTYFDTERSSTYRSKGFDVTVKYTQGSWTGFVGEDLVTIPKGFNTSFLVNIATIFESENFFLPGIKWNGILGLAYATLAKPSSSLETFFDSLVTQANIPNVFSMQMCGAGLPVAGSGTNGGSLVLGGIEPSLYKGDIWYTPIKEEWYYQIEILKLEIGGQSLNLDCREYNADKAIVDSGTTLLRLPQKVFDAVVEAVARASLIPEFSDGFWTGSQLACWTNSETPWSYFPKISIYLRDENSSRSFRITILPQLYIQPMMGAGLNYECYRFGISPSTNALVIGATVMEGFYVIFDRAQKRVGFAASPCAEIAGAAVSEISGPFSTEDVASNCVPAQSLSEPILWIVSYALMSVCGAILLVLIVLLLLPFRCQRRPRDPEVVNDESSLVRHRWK
Description: BACE2 Cell-Free Assay (BACE2 Enzyme Assay)
Selectivity versus related targets is important in terms of safety of a drug candidate. BACE2 is a close homolog of BACE1. BACE2 was recently reported to play a crucial role in pigmentation of the skin by processing pigment cell-specific melanocyte protein (PMEL). (Proc Natl Acad Sci USA. 2013 Jun. 25; 110(26):10658-63. doi: 10.1073/pnas.1220748110. Epub 2013 Jun. 10). It is believed that PMEL contributes in melanogenesis. Therefore, selectivity versus BACE2 is advantageous when it comes to pigmentation of the skin. The selectivity ratio of BACE2/BACE1 IC50 was calculated by dividing the BACE2 IC50 value by the BACE1 IC50 value determined each in the cell free assay. […] This implies a 3-fold improvement of example 1 compared to comparators 4 and 5.

[2] = target: hERG channel (Homo sapiens, UniProt Q12809); assay: hERG IC20 assay; assay type: cell-based; details: human, hERG IC20 assay
Description: The methods to determine the hERG IC20 values was described in Industrializing electrophysiology: HT automated patch clamp on SyncroPatch® 96 using instant frozen cells. Polonchuk L., Methods Mol Biol. 2014; 1183:81-92. (doi: 10.1007/978-1-4939-1096-0_5.) PMID:25023303
QT prolongation is a cardiovascular risk caused by drug candidates which inhibit the hERG channel (human ether a go-go). A sufficient safety margin between the hERG IC20 value and the free plasma concentration necessary to achieve the envisaged thereapeutic effects is desired (ICH. The nonclinical evaluation of the potential for delayed ventricular repolarization (QT interval prolongation) by human pharmaceuticals (S7B), issued as CPMP/ICH/423/02, adopted by CHMP in May 2005 (http://www.ich.org/cache/compo/276-254-1.html; Redfern W S, Carlsson L, Davis A S, Lynch W G, MacKenzie I, Palethorpe S, Siegl P K, Strang I, Sullivan A T, Wallis R, Camm A J, Hammond T G. Relationships between preclinical cardiac electrophysiology, clinical QT interval prolongation and torsade de pointes for a broad range of drugs: evidence for a provisional safety margin in drug development. Cardiovasc Res. 2003 Apr. 1; 58(1):32-45.)). Reducing the activity against efflux transporters expressed at the blood-brain-barrier such as P-glycoprotein P-gp, might result in reduction of the free plasma concentration by optimizing brain penetration.

Sequence of hERG channel (Q12809 whole entry): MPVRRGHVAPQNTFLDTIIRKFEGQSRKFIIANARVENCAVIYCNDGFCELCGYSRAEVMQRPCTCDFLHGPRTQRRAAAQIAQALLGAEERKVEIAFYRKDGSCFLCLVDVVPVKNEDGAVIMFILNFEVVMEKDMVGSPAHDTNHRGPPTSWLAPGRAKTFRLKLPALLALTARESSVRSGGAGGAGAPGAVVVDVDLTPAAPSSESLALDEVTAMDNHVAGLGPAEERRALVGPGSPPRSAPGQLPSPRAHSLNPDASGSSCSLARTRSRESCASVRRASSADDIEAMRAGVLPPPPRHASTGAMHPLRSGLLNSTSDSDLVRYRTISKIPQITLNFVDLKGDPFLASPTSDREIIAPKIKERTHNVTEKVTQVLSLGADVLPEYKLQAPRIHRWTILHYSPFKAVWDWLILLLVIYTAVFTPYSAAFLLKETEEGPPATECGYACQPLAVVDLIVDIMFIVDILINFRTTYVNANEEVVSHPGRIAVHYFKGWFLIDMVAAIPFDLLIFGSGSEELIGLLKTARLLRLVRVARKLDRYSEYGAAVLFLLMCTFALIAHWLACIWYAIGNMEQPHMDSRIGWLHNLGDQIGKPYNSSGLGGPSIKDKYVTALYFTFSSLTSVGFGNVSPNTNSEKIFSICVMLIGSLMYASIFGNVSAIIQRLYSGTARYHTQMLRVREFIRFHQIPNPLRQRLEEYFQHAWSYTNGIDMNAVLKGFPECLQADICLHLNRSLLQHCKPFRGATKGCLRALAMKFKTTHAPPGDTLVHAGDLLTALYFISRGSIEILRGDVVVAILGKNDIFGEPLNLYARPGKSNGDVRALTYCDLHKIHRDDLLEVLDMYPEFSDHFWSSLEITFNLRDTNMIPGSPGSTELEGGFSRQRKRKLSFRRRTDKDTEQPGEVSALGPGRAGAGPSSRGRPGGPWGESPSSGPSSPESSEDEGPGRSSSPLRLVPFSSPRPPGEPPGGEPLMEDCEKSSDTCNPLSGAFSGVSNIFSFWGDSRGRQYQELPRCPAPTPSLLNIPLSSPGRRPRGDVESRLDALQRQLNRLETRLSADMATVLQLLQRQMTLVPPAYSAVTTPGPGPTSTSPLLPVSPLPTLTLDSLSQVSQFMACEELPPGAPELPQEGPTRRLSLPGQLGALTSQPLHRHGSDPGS

SMILES: Cc1cc(C#N)cnc1C(=O)Nc1ccc(F)c([C@@]2(C)N=C(N)O[C@H](C(F)(F)F)[C@@H]2F)n1 [Example 1, N-(6-((4R,5R,6S)-2-amino-5-fluoro-4-methyl-6-(trifluoromethyl)-5,6-dihydro-4H-1,3-oxazin-4-yl)-5-fluoropyridin-2-yl)-5-cyano-3-methylpicolinamide]
- improvement of BACE2/BACE1 selectivity compared to comparators 4 and 5 [1]: 3 fold
- BACE2/BACE1 IC50 ratio [1]: 2.0
- BACE2/BACE1 IC50 ratio ([1]; listed as example 1): 2
- IC20 ([2]; instant frozen cells (hERG channel; cell line not named)): > 1 µM
- IC20 [2]: > 1 µM
